Structures are written as SMILES.

Consider one compound from publication PMC6576746, “Rational discovery of dual-indication multi-target PDE/Kinase inhibitor for precision anti-cancer therapy using structural systems pharmacology” (PLoS Computational Biology, 2019).

Common to all, as to assay: biochemical
Common to all, as to parameters: DiscoverX KinomeScan competition binding assay across human kinases; per cent of control at 10 and 100 uM

The target of one assay is MAST1 (Homo sapiens, UniProt Q9Y2H9). As to conditions: competition binding, % of control; read-out: Percent Control (100 uM Levosimendan). In short, it runs like this:
(§1)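 KinomeScan competition binding was run across a human kinase panel at 10 μM and 100 μM levosimendan. Results are %control = (test − positive control)/(negative control − positive control) × 100.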

The target of the next assay is EPHB6 (Homo sapiens, UniProt O15197). The following applies: competition binding, % of control. In short, it runs like this:
as §1

The next assay has as its target T1, PCTK1 (Homo sapiens, UniProt Q00536).
T1 construct: gene CDK16
As to conditions: competition binding, % of control; read-out: Percent Control (100 uM Levosimendan). An outline of the steps: as §1

A further assay concerns the target T2, NDR1 (Homo sapiens, UniProt Q15208).
T2 construct: gene STK38
As to conditions: competition binding, % of control; read-out: Percent Control (100 uM Levosimendan). An outline of the steps: as §1

Assay [1] deals with T3, TYK2(JH2domain-pseudokinase) (Homo sapiens, UniProt P29597).
T3 construct: JH2domain-pseudokinase
The following applies: competition binding, % of control. An outline of the steps: as §1

For the next assay, the target named is CASK (Homo sapiens, UniProt O14936). As to conditions: competition binding, % of control; read-out: Percent Control (100 uM Levosimendan). In short, it runs like this: as §1
The next assay deals with T4, MEK5 (Homo sapiens, UniProt Q13163).
T4 construct: gene MAP2K5
The following applies: competition binding, % of control. An outline of the steps: as §1

The target in a further assay is RAF1 (Homo sapiens, UniProt P04049). As to conditions: competition binding, % of control; read-out: Percent Control (100 uM Levosimendan). An outline of the steps:
as §1

For a further assay, the target named is PIK3CA(C420R) (Homo sapiens, UniProt P42336, C420R). As to conditions: competition binding, % of control; read-out: Percent Control (100 uM Levosimendan). An outline of the steps:
as §1

A further assay deals with RIOK2 (Homo sapiens, UniProt Q9BVS4). As to conditions: competition binding, % of control. In short, it runs like this:
as §1

Another assay concerns the target PIK3CA(E545K) (Homo sapiens, UniProt P42336, E545K). The following applies: competition binding, % of control; read-out: Percent Control (100 uM Levosimendan). In short, it runs like this:
as §1

The next assay has as its target PRKCE (Homo sapiens, UniProt Q02156). The following applies: competition binding, % of control; read-out: Percent Control (100 uM Levosimendan). An outline of the steps:
as §1

Another assay deals with LIMK1 (Homo sapiens, UniProt P53667). As to conditions: competition binding, % of control; read-out: Percent Control (100 uM Levosimendan). An outline of the steps:
as §1

The next assay concerns the target T5, YES (Homo sapiens, UniProt P07947).
T5 construct: gene YES1
The following applies: competition binding, % of control. An outline of the steps:
as §1

For another assay, the target named is PIK3CA(H1047Y) (Homo sapiens, UniProt P42336, H1047Y). As to conditions: competition binding, % of control; read-out: Percent Control (100 uM Levosimendan). In short, it runs like this:
as §1

A further assay concerns the target MAP4K2 (Homo sapiens, UniProt Q12851). As to conditions: competition binding, % of control; read-out: Percent Control (100 uM Levosimendan). An outline of the steps: as §1
For a further assay, the target named is MET(Y1235D) (Homo sapiens, UniProt P08581, Y1235D). The following applies: competition binding, % of control; read-out: Percent Control (100 uM Levosimendan). An outline of the steps:
as §1

The target in the next assay is PIK3CB (Homo sapiens, UniProt P42338). The following applies: competition binding, % of control; read-out: Percent Control (100 uM Levosimendan). In short, it runs like this:
as §1

Setting [2] is: read-out: Percent Control (10 uM Levosimendan).
[3] abbreviates: read-out: Percent Control (100 uM Levosimendan).

T3 sequence (P29597 whole entry): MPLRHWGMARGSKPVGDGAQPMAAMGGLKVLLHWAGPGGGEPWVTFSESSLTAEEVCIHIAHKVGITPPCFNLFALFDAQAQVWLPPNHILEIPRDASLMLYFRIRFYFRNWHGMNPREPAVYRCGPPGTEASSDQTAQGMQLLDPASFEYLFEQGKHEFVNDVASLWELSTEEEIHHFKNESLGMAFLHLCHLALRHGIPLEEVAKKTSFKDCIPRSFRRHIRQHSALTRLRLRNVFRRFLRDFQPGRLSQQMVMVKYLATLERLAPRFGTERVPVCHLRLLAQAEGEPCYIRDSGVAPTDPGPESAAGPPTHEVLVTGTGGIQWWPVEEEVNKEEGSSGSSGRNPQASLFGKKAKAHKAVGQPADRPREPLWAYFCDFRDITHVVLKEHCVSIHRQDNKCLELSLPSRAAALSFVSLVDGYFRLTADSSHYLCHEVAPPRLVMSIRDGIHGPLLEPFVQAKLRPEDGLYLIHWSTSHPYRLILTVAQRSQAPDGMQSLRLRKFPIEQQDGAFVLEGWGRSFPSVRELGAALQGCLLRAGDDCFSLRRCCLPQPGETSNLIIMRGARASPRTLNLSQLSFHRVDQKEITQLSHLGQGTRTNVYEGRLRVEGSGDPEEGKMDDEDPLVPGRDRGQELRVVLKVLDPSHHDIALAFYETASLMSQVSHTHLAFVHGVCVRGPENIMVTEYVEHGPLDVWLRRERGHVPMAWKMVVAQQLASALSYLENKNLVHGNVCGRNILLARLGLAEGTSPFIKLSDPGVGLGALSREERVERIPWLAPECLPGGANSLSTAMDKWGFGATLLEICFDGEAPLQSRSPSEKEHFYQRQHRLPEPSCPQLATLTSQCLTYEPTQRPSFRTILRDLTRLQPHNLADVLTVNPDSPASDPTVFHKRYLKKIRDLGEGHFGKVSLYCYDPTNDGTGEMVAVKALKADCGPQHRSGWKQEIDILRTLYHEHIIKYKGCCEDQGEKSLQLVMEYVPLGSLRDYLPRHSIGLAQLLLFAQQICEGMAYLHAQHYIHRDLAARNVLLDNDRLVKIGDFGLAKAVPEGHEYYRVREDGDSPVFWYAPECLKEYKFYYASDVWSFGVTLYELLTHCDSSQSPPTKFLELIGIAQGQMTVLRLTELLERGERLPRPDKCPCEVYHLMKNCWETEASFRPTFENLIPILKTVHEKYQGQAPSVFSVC
Sequence of EPHB6 (O15197 whole entry): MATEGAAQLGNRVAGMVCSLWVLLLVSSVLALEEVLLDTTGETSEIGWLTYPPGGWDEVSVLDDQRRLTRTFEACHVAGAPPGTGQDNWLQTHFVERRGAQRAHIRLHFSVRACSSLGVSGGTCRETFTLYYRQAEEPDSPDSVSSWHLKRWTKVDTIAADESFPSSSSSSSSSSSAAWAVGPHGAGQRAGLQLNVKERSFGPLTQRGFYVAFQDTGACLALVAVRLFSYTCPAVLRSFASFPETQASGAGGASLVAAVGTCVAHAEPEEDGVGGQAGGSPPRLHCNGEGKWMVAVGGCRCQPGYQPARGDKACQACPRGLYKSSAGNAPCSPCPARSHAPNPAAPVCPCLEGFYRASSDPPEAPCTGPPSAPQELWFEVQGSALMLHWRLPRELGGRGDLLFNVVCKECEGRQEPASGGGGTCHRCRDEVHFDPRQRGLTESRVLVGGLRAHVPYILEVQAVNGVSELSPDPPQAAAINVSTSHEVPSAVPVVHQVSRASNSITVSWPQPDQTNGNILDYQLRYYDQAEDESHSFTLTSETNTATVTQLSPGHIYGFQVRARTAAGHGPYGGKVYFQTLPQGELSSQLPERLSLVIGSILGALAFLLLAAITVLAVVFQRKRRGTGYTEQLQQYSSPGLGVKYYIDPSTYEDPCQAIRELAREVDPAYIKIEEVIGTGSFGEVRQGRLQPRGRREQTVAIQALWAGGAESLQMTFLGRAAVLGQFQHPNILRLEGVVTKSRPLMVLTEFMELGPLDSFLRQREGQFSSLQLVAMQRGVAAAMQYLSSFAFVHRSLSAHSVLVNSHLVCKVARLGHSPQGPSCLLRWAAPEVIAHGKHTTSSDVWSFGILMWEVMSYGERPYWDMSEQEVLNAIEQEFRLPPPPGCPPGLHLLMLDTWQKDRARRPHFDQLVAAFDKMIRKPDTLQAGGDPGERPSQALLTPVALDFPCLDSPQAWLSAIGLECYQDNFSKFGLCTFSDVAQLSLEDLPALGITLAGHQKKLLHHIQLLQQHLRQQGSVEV
Sequence of RIOK2 (Q9BVS4 whole entry): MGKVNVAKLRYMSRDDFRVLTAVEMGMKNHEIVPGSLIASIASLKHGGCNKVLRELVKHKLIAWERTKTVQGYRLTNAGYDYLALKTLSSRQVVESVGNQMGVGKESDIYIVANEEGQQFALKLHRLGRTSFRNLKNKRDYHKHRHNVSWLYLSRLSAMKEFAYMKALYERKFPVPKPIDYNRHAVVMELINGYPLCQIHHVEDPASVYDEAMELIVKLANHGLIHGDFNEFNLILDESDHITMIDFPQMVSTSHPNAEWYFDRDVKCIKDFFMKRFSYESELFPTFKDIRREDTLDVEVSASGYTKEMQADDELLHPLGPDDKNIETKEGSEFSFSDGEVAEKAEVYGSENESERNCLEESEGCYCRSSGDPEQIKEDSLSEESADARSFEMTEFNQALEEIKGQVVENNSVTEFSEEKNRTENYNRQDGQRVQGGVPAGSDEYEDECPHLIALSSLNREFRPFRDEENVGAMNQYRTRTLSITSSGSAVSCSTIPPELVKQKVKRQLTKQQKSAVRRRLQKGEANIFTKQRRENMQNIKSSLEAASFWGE
T4 sequence (Q13163 whole entry): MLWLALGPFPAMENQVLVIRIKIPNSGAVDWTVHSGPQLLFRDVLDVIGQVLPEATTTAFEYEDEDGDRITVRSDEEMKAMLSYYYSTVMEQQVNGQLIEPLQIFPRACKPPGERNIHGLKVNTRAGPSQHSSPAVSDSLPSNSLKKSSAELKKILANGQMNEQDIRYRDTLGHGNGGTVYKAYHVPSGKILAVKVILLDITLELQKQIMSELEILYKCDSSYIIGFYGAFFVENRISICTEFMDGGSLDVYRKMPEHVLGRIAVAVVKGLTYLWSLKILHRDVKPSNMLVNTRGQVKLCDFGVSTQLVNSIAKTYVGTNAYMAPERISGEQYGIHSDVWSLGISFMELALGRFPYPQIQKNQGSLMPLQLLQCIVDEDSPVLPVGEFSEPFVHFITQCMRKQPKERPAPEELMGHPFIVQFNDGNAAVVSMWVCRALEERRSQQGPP
T5 sequence (P07947 whole entry): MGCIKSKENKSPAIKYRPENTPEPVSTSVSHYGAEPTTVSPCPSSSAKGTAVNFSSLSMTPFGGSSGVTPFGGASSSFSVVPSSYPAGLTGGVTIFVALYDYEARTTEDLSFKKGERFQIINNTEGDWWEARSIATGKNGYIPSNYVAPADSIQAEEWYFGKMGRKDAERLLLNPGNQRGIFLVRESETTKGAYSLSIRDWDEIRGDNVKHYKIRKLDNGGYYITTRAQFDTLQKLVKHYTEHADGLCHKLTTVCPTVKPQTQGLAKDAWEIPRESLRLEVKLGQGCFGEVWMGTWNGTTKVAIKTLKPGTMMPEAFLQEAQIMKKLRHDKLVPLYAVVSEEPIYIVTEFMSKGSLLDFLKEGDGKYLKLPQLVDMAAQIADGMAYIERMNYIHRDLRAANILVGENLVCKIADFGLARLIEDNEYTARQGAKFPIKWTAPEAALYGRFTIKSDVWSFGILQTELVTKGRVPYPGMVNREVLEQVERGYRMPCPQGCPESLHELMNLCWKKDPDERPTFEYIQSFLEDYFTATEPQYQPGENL
Sequence of CASK (O14936 whole entry): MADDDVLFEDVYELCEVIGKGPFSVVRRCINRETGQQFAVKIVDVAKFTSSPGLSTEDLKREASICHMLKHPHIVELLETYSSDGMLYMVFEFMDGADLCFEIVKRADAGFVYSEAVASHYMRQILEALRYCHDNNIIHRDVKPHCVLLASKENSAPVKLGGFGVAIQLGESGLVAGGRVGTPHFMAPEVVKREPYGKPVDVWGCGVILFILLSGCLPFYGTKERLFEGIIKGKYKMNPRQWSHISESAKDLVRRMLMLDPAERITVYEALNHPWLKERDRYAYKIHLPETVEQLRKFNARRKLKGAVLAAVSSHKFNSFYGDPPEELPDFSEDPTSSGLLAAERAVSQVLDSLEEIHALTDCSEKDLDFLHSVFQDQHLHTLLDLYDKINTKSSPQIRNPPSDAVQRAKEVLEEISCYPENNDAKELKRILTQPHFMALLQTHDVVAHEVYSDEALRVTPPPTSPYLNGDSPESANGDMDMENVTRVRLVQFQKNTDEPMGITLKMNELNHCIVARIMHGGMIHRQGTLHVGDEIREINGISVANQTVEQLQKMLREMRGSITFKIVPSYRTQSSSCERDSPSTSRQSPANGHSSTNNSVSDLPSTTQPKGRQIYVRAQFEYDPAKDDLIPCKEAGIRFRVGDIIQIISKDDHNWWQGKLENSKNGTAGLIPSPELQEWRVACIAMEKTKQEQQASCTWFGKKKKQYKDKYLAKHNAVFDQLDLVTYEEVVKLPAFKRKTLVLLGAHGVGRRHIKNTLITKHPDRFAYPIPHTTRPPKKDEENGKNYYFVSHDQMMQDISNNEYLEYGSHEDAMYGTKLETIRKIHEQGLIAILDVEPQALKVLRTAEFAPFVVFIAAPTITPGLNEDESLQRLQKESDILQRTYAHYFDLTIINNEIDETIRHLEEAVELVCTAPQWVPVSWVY

On to `C[C@@H]1CC(=O)NN=C1c1ccc(NN=C(C#N)C#N)cc1` [levosimendan], for which the remaining binding at 100 µM on MAST1 was 100%; at EPHB6 (setting [3]), 16%; at PCTK1, 88%; on NDR1, 62%; in [1] (setting [3]) it was 11%; at CASK it was 88%. Also, the remaining binding at 100 µM at MEK5 (setting [3]) came to 2.6%; at RAF1, 77%; at PIK3CA(C420R) it was 100%; on RIOK2 (setting [3]) it was 27%; on PIK3CA(E545K) it was 58%; on PRKCE, 100%. The remaining binding at 100 µM was found to be 73% on LIMK1; 0% at YES (setting [3]); 100% on PIK3CA(H1047Y); 100% on MAP4K2; 57% on MET(Y1235D); 100% on PIK3CB. Also, the remaining binding at 10 µM on EPHB6 (setting [2]) was 56%; in assay [1] (setting [2]) it was 100%; on MEK5 (setting [2]), 17%; at RIOK2 (setting [2]), 67%; at YES (setting [2]) it was 97%.
